Assay results taken from patent publication US20230278972A1, “SUBSTITUTED HALOALKYL SULFONANILIDE HERBICIDES” (FMC Corporation, priority 2020, published 2023).

Assays:
Assay type in all cases: in vivo
[1] = tested on: barnyardgrass (Echinochloa crus-galli); assay: Test A preemergence, barnyardgrass; settings: Preemergence; for Barnyardgrass plant response rating: 125 g ai/ha, visual injury on 0 to 100 scale (0 no effect, 100 complete control), approximately 10 days; for Plant response rating, Barnyardgrass: 0 to 100 scale (0 no effect, 100 complete control)
How it was run: (§1)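 Preemergence: seeded pots of loam plus sand received a directed soil spray. Postemergence: seedlings at one to two leaves, 2 to 10 cm high, were oversprayed. Each compound was formulated in a non-phytotoxic solvent mix that included a surfactant.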

kochia (Bassia scoparia) [2] = assay: Test A preemergence, kochia; settings: Preemergence; for Kochia plant response rating: 125 g ai/ha, visual injury on 0 to 100 scale (0 no effect, 100 complete control), approximately 10 days; for Plant response rating, Kochia: 0 to 100 scale (0 no effect, 100 complete control)
How it was run: as §1

[3] = tested on: ragweed (common ragweed, Ambrosia artemisiifolia); assay: Test A preemergence, ragweed; settings: Preemergence; for Ragweed plant response rating: 125 g ai/ha, visual injury on 0 to 100 scale (0 no effect, 100 complete control), approximately 10 days; for Plant response rating, Ragweed: 0 to 100 scale (0 no effect, 100 complete control)
How it was run: as §1

[4] = tested on: Ryegrass, Italian (Italian ryegrass, Lolium multiflorum); assay: Test A preemergence, Ryegrass, Italian; settings: Preemergence; for Ryegrass, Italian plant response rating: 125 g ai/ha, visual injury on 0 to 100 scale (0 no effect, 100 complete control), approximately 10 days; for Plant response rating, Ryegrass, Italian: 0 to 100 scale (0 no effect, 100 complete control)
How it was run: as §1

[5] = tested on: Foxtail, Giant (giant foxtail, Setaria faberi); assay: Test A preemergence, Foxtail, Giant; settings: Preemergence; for Foxtail, Giant plant response rating: 125 g ai/ha, visual injury on 0 to 100 scale (0 no effect, 100 complete control), approximately 10 days; for Plant response rating, Foxtail, Giant: 0 to 100 scale (0 no effect, 100 complete control)
How it was run: as §1

[6] = tested on: pigweed (Amaranthus retroflexus); assay: Test A preemergence, pigweed; settings: for Pigweed plant response rating: 125 g ai/ha, visual injury on 0 to 100 scale (0 no effect, 100 complete control), approximately 10 days; for Plant response rating, Pigweed: 0 to 100 scale (0 no effect, 100 complete control)
How it was run: (§2)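 After sowing into a sand-amended loam, pots for the preemergence test were treated by spraying directly onto soil. In parallel, seedlings at the one- to two-leaf stage and 2 to 10 cm tall were treated postemergence with the identical surfactant-containing formulation.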

[7] = tested on: barnyardgrass (Echinochloa crus-galli); assay: Test A postemergence, barnyardgrass; settings: Postemergence, 0 to 100 scale (0 no effect, 100 complete control); for Barnyardgrass plant response rating: 500 g ai/ha, visual injury vs untreated controls after approx. 10 days
How it was run: as §2

kochia (Bassia scoparia) [8] = assay: Test A postemergence, kochia; settings: Postemergence; for Kochia plant response rating: 500 g ai/ha, visual injury vs untreated controls after approx. 10 days
How it was run: as §1

[9] = tested on: ragweed (common ragweed, Ambrosia artemisiifolia); assay: Test A postemergence, ragweed; settings: Postemergence; for Ragweed plant response rating: 500 g ai/ha, visual injury vs untreated controls after approx. 10 days
How it was run: as §1

[10] = tested on: Ryegrass, Italian (Italian ryegrass, Lolium multiflorum); assay: Test A postemergence, Ryegrass, Italian; settings: Postemergence; for Ryegrass, Italian plant response rating: 500 g ai/ha, visual injury vs untreated controls after approx. 10 days
How it was run: as §1

[11] = tested on: Foxtail, Giant (giant foxtail, Setaria faberi); assay: Test A postemergence, Foxtail, Giant; settings: Postemergence; for Foxtail, Giant plant response rating: 500 g ai/ha, visual injury vs untreated controls after approx. 10 days
How it was run: as §1

[12] = tested on: pigweed (Amaranthus retroflexus); assay: Test A postemergence, pigweed; settings: Postemergence; for Pigweed plant response rating: 500 g ai/ha, visual injury vs untreated controls after approx. 10 days
How it was run: as §1

[13] = tested on: wheat (Triticum aestivum); assay: Test A postemergence, wheat; settings: Postemergence; for Wheat plant response rating: 500 g ai/ha, visual injury vs untreated controls after approx. 10 days
How it was run: as §2

corn (Zea mays) = assay: Test A postemergence, corn; settings: Postemergence; for Corn plant response rating: 500 g ai/ha, visual injury vs untreated controls after approx. 10 days
How it was run: as §1

[14] = tested on: blackgrass (Alopecurus myosuroides); assay: Test A postemergence, blackgrass; settings: Postemergence, 0 to 100 scale (0 no effect, 100 complete control); for Blackgrass plant response rating: 500 g ai/ha, visual injury vs untreated controls after approx. 10 days
How it was run: as §1

[15] = tested on: galium (catchweed bedstraw, Galium aparine); assay: Test A postemergence, galium; settings: Postemergence; for Galium plant response rating: 500 g ai/ha, visual injury vs untreated controls after approx. 10 days
How it was run: as §2

[16] = 125 g ai/ha, visual injury approx. 10 days
[17] = 125 g ai/ha, visual injury approx. 10 days, 0 to 100 scale (0 no effect, 100 complete control)
[18] = 0 to 100 scale (0 no effect, 100 complete control)
[19] = 125 g ai/ha, 0 to 100 scale (0 no effect, 100 complete control)
[20] = 31 g ai/ha, visual injury, approx. 10 days
[21] = 31 g ai/ha, visual injury on 0 to 100 scale (0 no effect, 100 complete control), approx. 10 days

| Compound | Barnyardgrass plant response rating [1] | Kochia plant response rating (kochia (Bassia scoparia) [2]) | Ragweed plant response rating [3] | Ryegrass, Italian plant response rating [4] | Foxtail, Giant plant response rating [5] | Pigweed plant response rating [6] | Plant response rating, Barnyardgrass [7, 16] | Plant response rating, Kochia (kochia (Bassia scoparia) [8]; [17]) | Plant response rating, Ragweed [9, 19] | Plant response rating, Ryegrass, Italian [10, 19] | Plant response rating, Foxtail, Giant [11, 17] | Plant response rating, Pigweed [12, 19] | Plant response rating, Wheat [13, 19] | Plant response rating, Corn (corn (Zea mays); [17]) | Plant response rating, Blackgrass [14, 16] | Plant response rating, Galium [15, 17] | Plant response rating, Barnyardgrass [1, 20] | Plant response rating, Kochia (kochia (Bassia scoparia) [2]; [20]) | Plant response rating, Ragweed [3, 20] | Plant response rating, Ryegrass, Italian [4, 20] | further results |
| --- | --- | --- | --- | --- | --- | --- | --- | --- | --- | --- | --- | --- | --- | --- | --- | --- | --- | --- | --- | --- | --- |
| Cc1cc(C)c(N(S(=O)(=O)C(F)(F)F)S(=O)(=O)C(F)(F)F)cc1C1=NOC2(CCC3(CC2)OCCO3)C1 [Compound 136] | 90 | 80 | 50 | 90 | 100 | 20 | 20 | 30 | 60 | 80 | 0 | 40 | 70 | 0 | 10 | 70 | – | – | – | – | Plant response rating, Barnyardgrass ([1]; 500 g ai/ha): 100; Plant response rating, Kochia (kochia (Bassia scoparia) [2]; 500 g ai/ha): 90; Plant response rating, Ragweed ([3]; 500 g ai/ha): 80; Plant response rating, Ryegrass, Italian ([4]; 500 g ai/ha): 100; Plant response rating, Foxtail, Giant ([5]; 500 g ai/ha): 100; Plant response rating, Pigweed ([6]; 500 g ai/ha): 70; Barnyardgrass plant response rating [7]: 80; Kochia plant response rating (kochia (Bassia scoparia) [8]; [18]): 40; Ragweed plant response rating [9, 18]: 50; Ryegrass, Italian plant response rating [10, 18]: 0; Foxtail, Giant plant response rating [11, 18]: 50; Pigweed plant response rating [12, 18]: 90; Wheat plant response rating [13, 18]: 60; Corn plant response rating (corn (Zea mays); [18]): 30; Blackgrass plant response rating [14]: 20; Galium plant response rating [15, 18]: 90 |
| COC1CCCN(C(=O)c2cc(NS(=O)(=O)C(F)(F)F)c(C)cc2C)CC1 (stereo not shown) [Compound 137] | 100 | 30 | 60 | 100 | 100 | 100 | 30 | 20 | 10 | 0 | 0 | 30 | 0 | 30 | 0 | 80 | 20 | 30 | 20 | 60 | Plant response rating, Foxtail, Giant [5, 20]: 50; Plant response rating, Pigweed [6, 20]: 80; Plant response rating, Barnyardgrass ([7]; 31 g ai/ha): 10; Plant response rating, Kochia (kochia (Bassia scoparia) [8]; [21]): 0; Plant response rating, Ragweed [9, 21]: 0; Plant response rating, Ryegrass, Italian [10, 21]: 0; Plant response rating, Foxtail, Giant [11, 21]: 0; Plant response rating, Pigweed [12, 21]: 50; Plant response rating, Wheat [13, 21]: 0; Plant response rating, Corn (corn (Zea mays); [21]): 30; Plant response rating, Blackgrass ([14]; 31 g ai/ha): 0; Plant response rating, Galium [15, 21]: 30 |
| Cc1cc(C)c(N(S(=O)(=O)C(F)(F)F)S(=O)(=O)C(F)(F)F)cc1C1=NOC2(CCC(C)(C)CC2)C1 [Compound 139] | 0 | 0 | 0 | 50 | 0 | 20 | 0 | 0 | 0 | 0 | 0 | 40 | 0 | 0 | 0 | 50 | – | – | – | – | Plant response rating, Barnyardgrass ([1]; 500 g ai/ha): 30; Plant response rating, Kochia (kochia (Bassia scoparia) [2]; 500 g ai/ha): 60; Plant response rating, Ragweed ([3]; 500 g ai/ha): 30; Plant response rating, Ryegrass, Italian ([4]; 500 g ai/ha): 70; Plant response rating, Foxtail, Giant ([5]; 500 g ai/ha): 20; Plant response rating, Pigweed ([6]; 500 g ai/ha): 70; Barnyardgrass plant response rating [7]: 0; Kochia plant response rating (kochia (Bassia scoparia) [8]; [18]): 50; Ragweed plant response rating [9, 18]: 0; Ryegrass, Italian plant response rating [10, 18]: 0; Foxtail, Giant plant response rating [11, 18]: 0; Pigweed plant response rating [12, 18]: 80; Wheat plant response rating [13, 18]: 0; Corn plant response rating (corn (Zea mays); [18]): 0; Blackgrass plant response rating [14]: 0; Galium plant response rating [15, 18]: 80 |
| CCCCC(=O)OCN(c1cc(C2=NOC3(CCCC3)C2)c(C)cc1C)S(=O)(=O)C(F)(F)F [Compound 143] | 90 | 20 | 0 | 90 | 100 | 100 | 50 | 20 | 10 | 20 | 30 | 40 | 50 | 20 | 0 | 40 | 80 | 0 | 0 | 90 | Plant response rating, Foxtail, Giant [5, 20]: 50; Plant response rating, Pigweed [6, 20]: 60; Plant response rating, Barnyardgrass ([7]; 31 g ai/ha): 0; Plant response rating, Kochia (kochia (Bassia scoparia) [8]; [21]): 10; Plant response rating, Ragweed [9, 21]: 0; Plant response rating, Ryegrass, Italian [10, 21]: 0; Plant response rating, Foxtail, Giant [11, 21]: 0; Plant response rating, Pigweed [12, 21]: 20; Plant response rating, Wheat [13, 21]: 20; Plant response rating, Corn (corn (Zea mays); [21]): 0; Plant response rating, Blackgrass ([14]; 31 g ai/ha): 60; Plant response rating, Galium [15, 21]: 50 |
| CCC(=O)OCN(c1cc(C2=NOC3(CCCC3)C2)c(C)cc1C)S(=O)(=O)C(F)(F)F [Compound 144] | 100 | 30 | 30 | 90 | 100 | 50 | 20 | 10 | 30 | 0 | 30 | 40 | 60 | 30 | 0 | 60 | 20 | 0 | 0 | 70 | Plant response rating, Foxtail, Giant [5, 20]: 90; Plant response rating, Pigweed [6, 20]: 70; Plant response rating, Barnyardgrass ([7]; 31 g ai/ha): 0; Plant response rating, Kochia (kochia (Bassia scoparia) [8]; [21]): 10; Plant response rating, Ragweed [9, 21]: 0; Plant response rating, Ryegrass, Italian [10, 21]: 0; Plant response rating, Foxtail, Giant [11, 21]: 0; Plant response rating, Pigweed [12, 21]: 20; Plant response rating, Wheat [13, 21]: 0; Plant response rating, Corn (corn (Zea mays); [21]): 0; Plant response rating, Blackgrass ([14]; 31 g ai/ha): 0; Plant response rating, Galium [15, 21]: 30 |
